Measured values published in PubChem BioAssay (NCI).
Values joined by “and” are separate entries in the source; they are usually repeats but may differ in a detail not shown here. Identical values can stand only once.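 How tested: cells in 96-well plates exposed to compound for 48 hours at five concentrations. Abbreviation: GI50, concentration required for 50% inhibition of growth. At the TGI there is no net growth.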

How the values were obtained:
Test in all cases: DTP human tumour cell line panel, 48 h
[1] = tested on: IGROV1 ovarian
[2] = tested on: HT29 colon
[3] = tested on: OVCAR-3 ovarian
[4] = tested on: SF-539 CNS
[5] = tested on: PC-3 prostate
[6] = tested on: A549 NSCLC
[7] = tested on: NCI-H460 lung
[8] = tested on: HCC-2998 colon
[9] = tested on: 786-0 renal
[10] = tested on: MOLT-4 leukemia

Row | SMILES | GI50 [1] | TGI [1] | GI50 [2] | TGI [2] | GI50 [3] | TGI [3] | TGI [4] [µM] | GI50 [5] | TGI [5] | GI50 [6] | TGI [6] | GI50 [7] | TGI [7] | GI50 [8] | TGI [8] | GI50 [9] | TGI [9] | GI50 [10] | TGI [10] | GI50 [4] [µM]
1 | CC1CCC2C(C)C3C(CC4C5CC=C6CC(OC7OC(CO)C(O)C(OC8OC(CO)C(O)C(O)C8O)C7OC7OC(C)C(O)C(O)C7O)CCC6(C)C5CCC43C)N2C1 (stereo not drawn) | > 2.5 µg/mL | 26.2 µM and > 2.5 µg/mL | > 2.5 µg/mL | 25.6 µM and > 2.5 µg/mL | > 2.5 µg/mL | 31.7 µM and > 2.5 µg/mL | 23.8 | > 2.5 µg/mL | 28.5 µM and > 2.5 µg/mL | > 2.5 µg/mL | 16.7 µM and > 2.5 µg/mL | > 2.5 µg/mL | 37.6 µM and > 2.5 µg/mL | > 2.5 µg/mL | 35 µM and > 2.5 µg/mL | > 2.5 µg/mL | 20.4 µM and > 2.5 µg/mL | > 2.5 µg/mL | 60.9 µM and > 2.5 µg/mL | –
2 | COc1cc(C2CC(c3ccc4c(c3)OCO4)=NN2C(C)=O)cc(OC)c1OC (stereo not drawn) | 1.19 µM | 97.3 µM | 0.378 µM | > 100 µM | 0.297 µM | 0.808 µM | 7.29 | 4.39 µM | > 100 µM | 2.42 µM | > 100 µM | 0.398 µM | > 59.8 µM | 2.36 µM | 60 µM | 3.65 µM | > 100 µM | 1.05 µM | > 50.5 µM | 0.592
3 | C=C1C(=O)O[C@H]2[C@H]1[C@H](OC(=O)/C(C)=C\C)C[C@]1(CO1)[C@@H]1[C@H](OC(C)=O)C=C(C)[C@]21O | – | 38.8 µM | – | 30.4 µM | – | 32.1 µM | > 93.9 | – | > 58.8 µM | – | > 100 µM | – | > 89.8 µM | – | 35.5 µM | – | 23.5 µM | – | 25.6 µM | –
4 | CCn1c(-c2nonc2N)nc2c(C#CC(C)(C)O)nc(O[C@@H](CN)c3ccccc3)cc21 | 0.0163 µM | 2.86 µM | 0.119 µM | 0.735 µM | 0.0845 µM | 0.314 µM | 0.874 | 0.0858 µM | 9.94 µM | 0.108 µM | 3.7 µM | 0.0621 µM | 1.06 µM | 0.0478 µM | 0.858 µM | 0.16 µM | 2.49 µM | 0.11 µM | 1.97 µM | 0.116
5 | COc1ccc(/C(Cl)=C(\C=O)c2ccc(OC)c(OC)c2)cc1OC | – | > 100 µM | – | > 67.9 µM | – | > 57.7 µM | > 100 | – | > 100 µM | – | > 100 µM | – | > 100 µM | – | > 100 µM | – | > 100 µM | – | > 100 µM | –
6 | CCN(Cc1nc2cc(C(F)(F)F)ccc2nc1-c1ccccc1)c1ccc(OC)c(OC)c1 | 16.8 µM | 33.7 µM | 14.9 µM | > 100 µM | 13.1 µM | 26.5 µM | 33.1 | 7.33 µM | 22 µM | 0.369 µM | 16.3 µM | 22.2 µM | > 100 µM | 16.7 µM | 34.4 µM | 15.7 µM | 30.3 µM | 11.8 µM | 52.1 µM | 15.9
7 | CS(=O)(=O)OCCN(CCOS(C)(=O)=O)c1ccc(C=Nc2ccc3oc(=O)ccc3c2)cc1 | – | 53.1 µM | – | 53.6 µM | – | 24.1 µM | 35.3 | – | 80.7 µM | – | 35.3 µM | – | 5.38 µM | – | 7.77 µM | – | 3.5 µM | – | 15.4 µM | –
8 | O=C(O)c1ccc(S(=O)(=O)N=Nc2c(O)[nH]c3ccccc23)cc1 | – | > 100 µM | – | > 100 µM | – | > 100 µM | > 100 | – | > 100 µM | – | > 100 µM | – | > 100 µM | – | > 100 µM | – | > 100 µM | – | > 100 µM | –
9 | CC(F)(F)c1cc(F)ccc1-c1sc2cc(O)ccc2c1Oc1ccc(/C=C/C(=O)O)cc1 | 11.6 µM | 29 µM | 11.8 µM | 36.1 µM | 8.81 µM | 20.9 µM | 21 | 7.7 µM | 24.7 µM | 10.3 µM | 29.9 µM | 8.18 µM | 23.5 µM | 12.7 µM | 30.6 µM | 10.2 µM | 31.2 µM | 10.3 µM | 50 µM | 5.95
10 | COc1ccc(NC(=O)c2sc3nc(C)c(C(O)c4ccc(OC)cc4)cc3c2N)cc1 (stereo not drawn) | 1.85 µM | > 50 µM | 1.45 µM | 19.4 µM | 0.365 µM | 5.31 µM | 4.44 | 1.89 µM | > 50 µM | 0.258 µM | > 50 µM | 0.17 µM | 9.97 µM | 0.804 µM | 2.89 µM | 3.35 µM | > 50 µM | 2.17 µM | > 50 µM | 1.02
11 | COc1cccc(Cn2cc3c(c2)-c2oncc2CC3)c1 | 0.801 µM | > 100 µM | 0.306 µM | 11.7 µM | 0.267 µM | 0.7 µM | – | 0.751 µM | > 100 µM | 0.559 µM | > 56.1 µM | 0.338 µM | 4.1 µM | 0.442 µM | 7.98 µM | 1.98 µM | > 100 µM | 0.508 µM | > 21.7 µM | 0.266
12 | O=C(NCCN1CCOCC1)Nc1ccc(-c2cc3c(Nc4ccc(Oc5cccc(C(F)(F)F)c5)c(Cl)c4)ncnc3s2)cc1 | 1.64 µM | 6.85 µM | 0.896 µM | 1.69 µM | 2.34 µM | 8.54 µM | 2.01 | 1.41 µM | 5.6 µM | 1.04 µM | 2.42 µM | 1.12 µM | 2.54 µM | 1.19 µM | 3.77 µM | 0.67 µM | 1.6 µM | 1.22 µM | 3.75 µM | 0.825
13 | CCOC(=O)CNC(=O)CCCn1c(=O)c2c3ccccc3n(C)c2n2nnc(-c3ccccc3)c12 | 8.87 µM | 29.9 µM | > 50 µM | > 50 µM | 12.5 µM | 48.8 µM | 11.6 | 8.59 µM | > 50 µM | 32.8 µM | > 50 µM | > 50 µM | > 50 µM | > 50 µM | > 50 µM | 5.13 µM | 17.4 µM | > 50 µM | > 50 µM | 4.3
14 | COc1cc(-c2nn(C(=O)NS(=O)(=O)c3ccc(C)cc3)cc2-c2ccncc2)ccc1Cl | 5.1 µM | > 100 µM | 2.89 µM | 17.6 µM | 25.2 µM | > 100 µM | 14.7 | 16.1 µM | > 100 µM | 4.43 µM | 35 µM | 13.3 µM | 38.5 µM | 11.4 µM | 35.8 µM | 3.47 µM | 17.7 µM | 10.6 µM | 54.1 µM | 3.61
15 | O=C(c1ccco1)c1c(C(F)(F)F)nc2cc(C(F)(F)F)ccc2[n+]1[O-] | 26.5 µM | 90.6 µM | > 100 µM | > 100 µM | 37.8 µM | > 100 µM | 54.2 | 44.9 µM | > 100 µM | 48.4 µM | > 100 µM | 56 µM | > 100 µM | > 100 µM | > 100 µM | 36.7 µM | > 100 µM | > 100 µM | > 100 µM | 21.2
16 | O=C(NCCCNC(=O)OCc1ccc2c(Br)cc(Br)c(O)c2n1)OCc1ccc2c(Br)cc(Br)c(O)c2n1 | > 100 µM | > 100 µM | > 100 µM | > 100 µM | > 100 µM | > 100 µM | > 100 | > 100 µM | > 100 µM | > 100 µM | > 100 µM | > 100 µM | > 100 µM | > 100 µM | > 100 µM | > 100 µM | > 100 µM | > 100 µM | > 100 µM | > 100
17 | O=C(Nc1cccc(C(F)(F)F)c1)c1cccc(NC2=C(Cl)C(=O)N(Cc3ccccc3)C2=O)c1 | 1.92 µM | 18.3 µM | 40.1 µM | > 100 µM | 8 µM | > 100 µM | 62.7 | 3.1 µM | 14.3 µM | 17 µM | > 100 µM | 8.76 µM | > 100 µM | 16.8 µM | 32.7 µM | 27.4 µM | > 100 µM | 2.73 µM | > 100 µM | 26
18 | O=C1/C(=C/c2ccc([N+](=O)[O-])s2)Oc2ccccc21 | 0.839 µM | 2.45 µM | 0.771 µM | 4.67 µM | 0.25 µM | 0.55 µM | 2.1 | 0.387 µM | 2.26 µM | 1.66 µM | 3.88 µM | 1.51 µM | 3.53 µM | 1.42 µM | 2.89 µM | 2.42 µM | 6.29 µM | 0.654 µM | 3.23 µM | 0.654
19 | CCOC(=O)N1C/C(=C/c2ccc(OC)cc2)C(=O)/C(=C/c2ccc(OC)cc2)C1 | 2.44 µM | > 21.2 µM | 0.79 µM | 2.53 µM | 2.75 µM | 7.81 µM | 3.7 | 2.53 µM | 8.61 µM | 2.33 µM | 6.96 µM | 3.13 µM | > 100 µM | 1.81 µM | 3.38 µM | 1.79 µM | 3.4 µM | 3.99 µM | > 100 µM | 1.81
